In patent US10829742B2, “Production of xylitol from glucose by a recombinant strain” (ROQUETTE FRERES, priority 2014, dated 2020):
Like-named read-outs stand apart in the source and are kept apart here. One block for each compound: values may come before it.

Key:
[1] = system: NADH-specific D-ketopentose-oxidoreductase; conditions: crude extract; cited from earlier work
[2] = system: NADPH-specific D-ketopentose-oxidoreductase; conditions: crude extract; cited from earlier work
[3] = system: NADPH-specific D-ketopentose-oxidoreductase; test: NADPH-specific D-ketopentose-oxidoreductase kinetic parameters; type: biochemical, P. ohmeri ATCC 20209; conditions: NADP^+ added in excess, in vitro
Description: As an illustration of its performances, the following tables indicate the enzyme activities involved in the arabitol metabolic pathway of Pichia ohmeri (Sophie […] Thesis, 1992) The Michaelis-Menten constants highlight the affinities of the NADH and NADPH-D-ketopentose-oxidoreductases for each substrate and the corresponding maximum velocities. [table] The Haldane relationship predicts in vivo enzyme kinetic behaviors. The inhibitory effect of NADP^+ on NADPH-specific D-ketopentose-oxidoreductase has been determined in vitro. The activity is 80% less when NADP^+ is added in excess.

[4] = system: D-Ribulose-5-P 3-epimerase; conditions: crude extract; cited from earlier work
Acid phosphatase = conditions: crude extract; cited from earlier work
Transketolase = conditions: crude extract, cited from earlier work
[5] = system: D-Ribose-5-P keto-isomerase; conditions: crude extract; cited from earlier work

SMILES: OC[C@@H](O)[C@H](O)[C@@H](O)CO [Xylitol]
Km [1]: 7 mM | VM [1]: 0.2 U/mg | VM [2]: 0.15 U/mg

SMILES: OC[C@@H](O)[C@@H](O)[C@@H](O)CO [Ribitol]
Km [1]: 16 mM | VM [1]: 0.16 U/mg

SMILES: O=C(CO)[C@@H](O)[C@H](O)CO [D-Xylulose]
Km [1]: 5 mM | VM [1]: 0.6 U/mg | VM [2]: 1.5 U/mg

SMILES: OC[C@@H](O)C(O)[C@H](O)CO [D-Arabitol]
VM [2]: 0.8 U/mg

inhibitory effect: activity less [3]: 80%
SMILES: NC(=O)c1ccc[n+]([C@@H]2O[C@H](COP(=O)([O-])OP(=O)(O)OC[C@H]3O[C@@H](n4cnc5c(N)ncnc54)[C@H](OP(=O)(O)O)[C@@H]3O)[C@@H](O)[C@H]2O)c1 [NADP^+]

SMILES: O=C(CO)[C@H](O)[C@H](O)CO [D-Ribulose]
Km [1]: 90 mM | VM [1]: 1 U/mg | Km [2]: 72 mM | VM [2]: 3.4 U/mg

SMILES: O=C(CO)[C@@H](O)[C@H](O)COP(=O)(O)O [D-Xylulose-5-P]
Km [4]: 6.6 mM | VM [4]: 0.7 U/mg | Km (Acid phosphatase): 16 mM | VM (Acid phosphatase): 0.11 U/mg | Km (Transketolase; Transketolase (D-ribose-5-P)): 0.2 mM | VM (Transketolase; Transketolase (D-ribose-5-P)): 0.9 U/mg | Km (Transketolase; Transketolase (Erythrose-4-P)): 0.6 mM | VM (Transketolase; Transketolase (Erythrose-4-P)): 1.45 U/mg

SMILES: O=C(CO)[C@H](O)[C@H](O)COP(=O)(O)O [D-Ribulose-5-P]
Km [4]: 6.3 mM | VM [4]: 3 U/mg | Km [5]: 0.35 mM | VM [5]: 1.8 U/mg | Km (Acid phosphatase): 4.3 mM | VM (Acid phosphatase): 0.65 U/mg
